This passage reports IC50 results from US9139585B2 (Merck Sharp & Dohme Corp., priority 2011, dated 2015).

Read-outs that look alike come from different tables or passages of the source.

One experiment concerns the target Kir1.1 (ROMK1) (Homo sapiens (Human), UniProt P48048). As to the kind of experiment: Electrophysiology Assay (whole cell voltage clamp, IonWorks Quattro). The class given is cell-based. To be noted: read-out: EP Assay IC50. The source says:
Several assays may be used to measure functional inhibition of the ROMK channel by compounds of the instant invention. One assay that can be used is an electrophysiology assay that measures the electrical current that is generated as potassium permeates through the channel.
Block of Kir1.1 (ROMK1) currents was examined by whole cell voltage clamp (Hamill et. al. Pfluegers Archives 391:85-100 (1981)) using the IonWorks® Quattro automated electrophysiology platform (Molecular Devices, Sunnyvale, Calif.). Chinese hamster ovary cells stably expressing Kir1.1 channels were maintained in T-75 flasks in cell culture media in a humidified 10% CO2 incubator at 37° C. Prior to an experiment, Kir1.1 expression was induced by overnight incubation with 1 mM sodium butyrate. On the day of the experiment, cells were dissociated with 2.5 ml of Versene™ (Invitrogen 15040-066) for approximately 6 minutes at 37° C. and suspended in 10 ml of bath solution containing (in mM): 150 NaCl, 10 KCl, 2.7 CaCl2, 0.5 MgCl2, 5 HEPES, pH 7.4. After centrifugation, the cell pellet was resuspended in approximately 4.0 ml of bath solution and placed in the IonWorks® instrument. The intracellular solution consisted of (in mM): 80 K gluconate, 40 KCl, 20 KF, 3.2 MgCl2, 3 EGTA, 5 Hepes, pH 7.4. Electrical access to the cytoplasm was achieved by perforation in 0.13 mg/ml amphotericin B for 4 minutes. Amphotericin B (Sigma A-4888) was prepared as a 40 mg/ml solution in DMSO.
Voltage protocols and current recordings were performed using the IonWorks® HT software/hardware system. Currents were sampled at 1 kHz. No correction for liquid junction potentials was used. The test pulse, consisting of a 100 ms step to 0 mV from a holding potential of −70 mV, followed by a 100 ms voltage ramp from −70 mV to +70 mV, was applied before and after a 6 minutes compound incubation period. Test compounds were prepared by diluting DMSO stock solutions into the bath solution at 3× the final concentration and placed in the instrument in 96-well polypropylene plates. Current amplitudes were measured using the IonWorks® software. To assess compound potency, the fractional block during the voltage step to 0 mV was calculated in Microsoft® Excel (Microsoft, Redmond, Calif.), and dose-response curves were fitted with Igor Pro 4.0 (WaveMetrics, Lake Oswego, Oreg.).
(In patch-clamp work, channel activity is measured electrically.)

The target in another experiment is hROMK (hKir1.1) (Homo sapiens (Human), UniProt P48048). Kind of experiment: Thallium Flux Assay (ROMK channel functional thallium flux, FLIPR-Tetra). The class given is cell-based. As to the method: Another ROMK functional assay makes use of the ability of thallium to permeate through open ROMK channels and increase the fluorescence of a dye previously loaded into the cells. Under control conditions, cells loaded with dye and exposed to thallium-containing medium display a time-dependent increase in fluorescence, the rate of which depends on number of functional channels. When cells are incubated in the presence of a channel inhibitor, the increase in fluorescence is attenuated in a concentration-dependent manner, and IC50 values of inhibition by compounds can be accurately determined. This assay has been established with cell lines expressing either human, or rat ROMK channels, and operates in 384-well format.
Sequence of hROMK (hKir1.1) (P48048 whole entry): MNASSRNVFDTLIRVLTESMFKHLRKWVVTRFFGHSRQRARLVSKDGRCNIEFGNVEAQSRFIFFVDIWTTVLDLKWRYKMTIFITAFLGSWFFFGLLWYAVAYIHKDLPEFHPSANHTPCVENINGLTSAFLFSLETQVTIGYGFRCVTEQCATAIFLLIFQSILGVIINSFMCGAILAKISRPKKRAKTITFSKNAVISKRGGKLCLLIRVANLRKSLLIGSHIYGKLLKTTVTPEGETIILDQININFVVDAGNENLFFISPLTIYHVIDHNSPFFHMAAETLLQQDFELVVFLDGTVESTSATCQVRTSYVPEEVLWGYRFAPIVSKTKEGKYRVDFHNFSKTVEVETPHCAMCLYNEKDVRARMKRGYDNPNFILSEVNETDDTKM
HEK293 cells stably expressing hROMK (hKir1.1) were grown at 37° C. in a 10% CO2 humidified incubator in complete growth media: Dulbecco's Modified Eagle Medium supplemented with non-essential amino acids, Penicillin/Streptomycin/Glutamine, G418 and FBS. At >80% confluency, the media was aspirated from the flask and the sample was rinsed with 10 ml Calcium/Magnesium-free PBS. […] To dislodge the cell, the side of the flask was gently banged with a hand. The cells were triturated completely and then transferred to 25 ml complete media. The sample was then centrifuged at 1,500 rpm for 6 minutes, followed by resuspension in complete growth media and then cell concentration was determined. […] Under ideal growth conditions and appropriate tissue culture practices, this cell line is stable for 40-45 passages.
FluxOR Kit Components (Invitrogen F10017)
• FluxOR™ Reagent (Component A) • FluxOR™ Assay Buffer (Component B)—10× Concentrate • PowerLoad™ Concentrate (Component C)—100× Concentrate • Probenecid (Component D)—Lyophilized sample is kept at −20° C. Water soluble, 100× after solubilization in 1 ml water. […] Store at 4° C. • Thallium sulfate (Tl2SO4) Concentrate (Component G)—50 mM in water. Store at 4° C. • DMSO (dimethyl sulfoxide, Component H)—1 ml (100%) Reagent Preparation— FluxOR Working Solutions • 1000× FluxOR™ Reagent: Reconstitute a vial of component A in 100 μl DMSO; Mix well; Store 10 μl aliquots at −20° C. • 1× FluxOR™ Assay Buffer: Dilute Component B 10-fold with water; Adjust pH to 7.4 with Hepes/NaOH; Filter and store at 4° C. • Probenecid/Assay Buffer: 100 ml of 1× FluxOR™ Assay Buffer; 1 ml of reconstituted component D; Store at 4° C. • Loading Buffer (per microplate): 10 μl 1000× FluxOR™ Reagent; 100 μl component C; 10 ml Probenecid/Assay Buffer • Compound Buffer (per microplate): 20 ml Probenecid/Assay Buffer; 0.3 mM ouabain (10 mM ouabain in water can be stored in amber bottle/aluminum foil at room temperature);
Test compound • 1× FluxOR™ Chloride-Free Buffer: Prepare 1× working solution in water. Can be stored at room temperature • Stimulant Buffer (prepared at 5× final concentration in 1× FluxOR™ Chloride-Free Buffer): 7.5 mM Thallium sulfate and 0.75 mM Potassium sulfate (to give a final assay concentration of 3 mM Thallium/0.3 mM Potassium). Store at 4° C. when not in use. If kept sterile, this solution is good for months. Assay Protocol—
The ROMK channel functional thallium flux assay is performed in 384 wells, using the FLIPR-Tetra instrument. HEK-hKir1.1 cells are seeded in Poly-D-Lysine microplates and kept in a 37° C.-10% CO2 incubator overnight. On the day of the experiment, the growth media is replaced with the FluxOR™ reagent loading buffer and incubated, protected from light, at ambient temperature (23-25° C.) for 90 min. The loading buffer is replaced with assay buffer±test compound followed by 30 min incubation at ambient temperature, where the Thallium/Potassium stimulant is added to the microplate.
• 1. Seed HEK-hKir1.1 cells (50 μl at 20,000 cells/well) in 384-well PDL coated Microplates • 2. Allow cells to adhere overnight in humidified 37° C./10% CO2 incubator • 3. Completely remove cell growth media from microplate and replace with 25 μl loading buffer • 4.

Setting [1] is: Chinese hamster ovary cells stably expressing Kir1.1, block during voltage step to 0 mV.
The mark [2] stands for this setting: HEK293 cells stably expressing hROMK (hKir1.1), read-out: Thallium Flux Assay IC50.

Sequence of Kir1.1 (ROMK1) (P48048 whole entry, species assumed): as the sequence (P48048 whole entry) above

Broadly, the IC50 is the point on the concentration scale where inhibition reaches its midpoint. With `Cc1c([C@@H](O)CN2CC3COCC(C2)N3C[C@H](O)c2ccc3c(c2C)COC3=O)ccc2c1COC2=O` [Example 18, 5,5′-(1R,1′R)-2,2′-(3-Oxa-7,9-diazabicyclo[3.3.1]nonane-7,9-diyl)bis(1-hydroxyethane-2,1-diyl)bis(4-methylisobenzofuran-1(3H)-one)], the IC50 at Kir1.1 (ROMK1) (setting [1]) is 30 nM; on hROMK (hKir1.1) (setting [2]) it was 30.8 nM.

With `Cc1c([C@@H](O)CN2C3COCC2CN(CCc2ccc4c(c2)C[C@H](C)OC4=O)C3)ccc2c1COC2=O` [Example 22, (S)-6-(2-(9-((R)-2-Hydroxy-2-(4-methyl-1-oxo-1,3-dihydroisobenzofuran-5-yl)ethyl)-3-oxa-7,9-diazabicyclo[3.3.1]nonan-7-yl)ethyl)-3-methylisochroman-1-one], the IC50 at Kir1.1 (ROMK1) is 32 nM; against hROMK (hKir1.1) (Thallium Flux Assay IC50), 42.7 nM.

On to `Cc1c([C@@H](O)CN2CCN(CC(O)c3ccc(-n4cnnn4)nc3)CC2)ccc2c1COC2=O` (single isomer, unassigned) [Example 34A], for which the IC50 was found to be 35 nM on Kir1.1 (ROMK1) and 296 nM on hROMK (hKir1.1) (read-out: Thallium Flux Assay IC50).

On to `Cc1c([C@@H](O)CN2C3COCC2CN(CCc2ccc4c(c2)C[C@@H](C)OC4=O)C3)ccc2c1COC2=O` [Example 21, (R)-6-(2-(9-((R)-2-Hydroxy-2-(4-methyl-1-oxo-1,3-dihydroisobenzofuran-5-yl)ethyl)-3-oxa-7,9-diazabicyclo[3.3.1]nonan-7-yl)ethyl)-3-methylisochroman-1-one], for which the IC50 on Kir1.1 (ROMK1) is 45 nM; on hROMK (hKir1.1) (Thallium Flux Assay IC50) it was 36 nM.

For the compound `Cc1c([C@H](O)CN2CCN(CCc3ccc4c(c3)C[C@@H](C)OC4=O)CC2)ccc2c1COC2=O` [Example 29, (R)-6-(2-(4-((S)-2-Hydroxy-2-(4-methyl-1-oxo-1,3-dihydroisobenzofuran-5-yl)ethyl)piperazin-1-yl)ethyl)-3-methylisochroman-1-one], the IC50 was 145 nM on Kir1.1 (ROMK1) (setting [1]) and 185 nM on hROMK (hKir1.1) (setting [2]).

For the compound `Cc1c([C@@H](O)CN2CCN(C[C@H](O)c3ccc4c(c3C)COC4=O)C(C)(C)C2)ccc2c1COC2=O` [Example 2, 5,5′-{(2,2-dimethylpiperazine-1,4-diyl)bis[(1R)-1-hydroxyethane-2,1-diyl]}bis(4-methyl-2-benzofuran-1(3H)-one)], the IC50 on Kir1.1 (ROMK1) (setting [1]) came to 41 nM; at hROMK (hKir1.1) (setting [2]) it was 113 nM.

Take `Cc1c([C@@H](O)CN2CCN(C[C@H](O)c3ccc4c(c3C)COC4=O)C3(CCCC3)C2)ccc2c1COC2=O` [Example 1, 5,5′-{6,9-Diazaspiro[4.5]decane-6,9-diylbis[(1R)-1-hydroxyethane-2,1-diyl]}bis(4-methyl-2-benzofuran-1(3H)-one)]: the IC50 at Kir1.1 (ROMK1) (setting [1]) is 134 nM; at hROMK (hKir1.1) (setting [2]) it was 311 nM.

Consider `Cc1c([C@@H](O)CN2C3CCC2C2CCC3N2C(=O)c2ccc(-n3cnnn3)nc2)ccc2c1COC2=O` [Example 13], for which the IC50 on Kir1.1 (ROMK1) was 130 nM; on hROMK (hKir1.1) (Thallium Flux Assay IC50), 985 nM.

Turning to `Cc1c([C@@H](O)CN2C[C@H]3CC[C@@H](C2)N3S(=O)(=O)c2ccc(-n3cnnn3)cc2)ccc2c1COC2=O` [Example 16], the IC50 was 54 nM on Kir1.1 (ROMK1) and 397 nM at hROMK (hKir1.1) (Thallium Flux Assay IC50).

For `Cc1c([C@@H](O)CN2C3CCC2C2CCC3N2CC(O)c2ccc(C#N)cn2)ccc2c1COC2=O` (single isomer, unassigned) [Example 5], the results for the IC50 on Kir1.1 (ROMK1) (setting [1]) and on hROMK (hKir1.1) (setting [2]) were 197 nM and 377 nM, respectively.

For `Cc1cc(-n2cnnn2)ncc1[C@@H](O)CN1CCN(C[C@H](O)c2ccc3c(c2C)COC3=O)CC1` (single isomer, unassigned) [Example 35A], the IC50 on Kir1.1 (ROMK1) (setting [1]) was 29 nM; at hROMK (hKir1.1) (setting [2]), 105 nM.

Regarding `COc1cc(C(O)CN2CCN(CC(O)c3ccc4c(c3)C[C@H](C)OC4=O)CC2)ncc1C#N` (single isomer, unassigned) [Example 44A], the IC50 at Kir1.1 (ROMK1) (setting [1]) worked out at 151 nM; on hROMK (hKir1.1) (setting [2]), 704 nM.
